Measured values taken from the NIST ThermoML archive (doi:10.1016/j.fluid.2009.02.001).
± gives the expanded uncertainty stated by the source.

Assays:
[1] = for vapor or sublimation pressure: Liquid
[2] = Molar enthalpy of transition or fusion; details: Crystal; DSC

CC(=O)Nc1ccc(O)cc1 [N-acetyl-p-aminophenol]
vapor or sublimation pressure ([1]; 477.3 K, Isothermal thermogravimetry): 0.194 ± 0.02 kPa | vapor or sublimation pressure ([1]; 477.3 K, Nonisothermal thermogravimetry): 0.197 ± 0.02 kPa | vapor or sublimation pressure ([1]; 478.8 K, Isothermal thermogravimetry): 0.1996 ± 0.023 kPa | vapor or sublimation pressure ([1]; 479.3 K, Isothermal thermogravimetry): 0.206 ± 0.023 kPa | vapor or sublimation pressure ([1]; 479.3 K, Nonisothermal thermogravimetry): 0.204 ± 0.024 kPa | vapor or sublimation pressure ([1]; 480 K, Isothermal thermogravimetry): 0.225 ± 0.029 kPa | vapor or sublimation pressure ([1]; 480.8 K, Isothermal thermogravimetry): 0.2307 ± 0.03 kPa | vapor or sublimation pressure ([1]; 481.4 K, Isothermal thermogravimetry): 0.249 ± 0.027 kPa | vapor or sublimation pressure ([1]; 481.4 K, Nonisothermal thermogravimetry): 0.25 ± 0.029 kPa | vapor or sublimation pressure ([1]; 482 K, Isothermal thermogravimetry): 0.2601 ± 0.032 kPa | vapor or sublimation pressure ([1]; 482.9 K, Isothermal thermogravimetry): 0.2539 ± 0.028 kPa | vapor or sublimation pressure ([1]; 483.2 K, Isothermal thermogravimetry): 0.276 ± 0.029 kPa | vapor or sublimation pressure ([1]; 483.2 K, Nonisothermal thermogravimetry): 0.259 ± 0.031 kPa | vapor or sublimation pressure ([1]; 483.8 K, Isothermal thermogravimetry): 0.2861 ± 0.032 kPa | vapor or sublimation pressure ([1]; 484.7 K, Isothermal thermogravimetry): 0.2838 ± 0.033 kPa | vapor or sublimation pressure ([1]; 485.2 K, Isothermal thermogravimetry): 0.303 ± 0.033 kPa | vapor or sublimation pressure ([1]; 485.9 K, Isothermal thermogravimetry): 0.3199 ± 0.038 kPa | vapor or sublimation pressure ([1]; 486.7 K, Isothermal thermogravimetry): 0.3264 ± 0.04 kPa | vapor or sublimation pressure ([1]; 487.3 K, Isothermal thermogravimetry): 0.336 ± 0.037 kPa | vapor or sublimation pressure ([1]; 487.3 K, Nonisothermal thermogravimetry): 0.341 ± 0.036 kPa | vapor or sublimation pressure ([1]; 487.9 K, Isothermal thermogravimetry): 0.3679 ± 0.04 kPa | vapor or sublimation pressure ([1]; 488.8 K, Isothermal thermogravimetry): 0.3624 ± 0.041 kPa | vapor or sublimation pressure ([1]; 489.3 K, Isothermal thermogravimetry): 0.365 ± 0.038 kPa | vapor or sublimation pressure ([1]; 489.3 K, Nonisothermal thermogravimetry): 0.315 ± 0.045 kPa | vapor or sublimation pressure ([1]; 490 K, Isothermal thermogravimetry): 0.3891 ± 0.043 kPa | vapor or sublimation pressure ([1]; 490.8 K, Isothermal thermogravimetry): 0.3978 ± 0.047 kPa | vapor or sublimation pressure ([1]; 491.2 K, Isothermal thermogravimetry): 0.409 ± 0.047 kPa | vapor or sublimation pressure ([1]; 491.2 K, Nonisothermal thermogravimetry): 0.468 ± 0.057 kPa | vapor or sublimation pressure ([1]; 491.8 K, Isothermal thermogravimetry): 0.437 ± 0.046 kPa | vapor or sublimation pressure ([1]; 492.7 K, Isothermal thermogravimetry): 0.449 ± 0.052 kPa | vapor or sublimation pressure ([1]; 493.3 K, Isothermal thermogravimetry): 0.44 ± 0.047 kPa | vapor or sublimation pressure ([1]; 493.3 K, Nonisothermal thermogravimetry): 0.447 ± 0.046 kPa | vapor or sublimation pressure ([1]; 493.9 K, Isothermal thermogravimetry): 0.482 ± 0.051 kPa | vapor or sublimation pressure ([1]; 494.8 K, Isothermal thermogravimetry): 0.4882 ± 0.058 kPa | vapor or sublimation pressure ([1]; 495.4 K, Isothermal thermogravimetry): 0.492 ± 0.051 kPa | vapor or sublimation pressure ([1]; 495.4 K, Nonisothermal thermogravimetry): 0.504 ± 0.063 kPa | vapor or sublimation pressure ([1]; 496 K, Isothermal thermogravimetry): 0.524 ± 0.059 kPa | vapor or sublimation pressure ([1]; 496.9 K, Isothermal thermogravimetry): 0.5169 ± 0.059 kPa | vapor or sublimation pressure ([1]; 497.2 K, Isothermal thermogravimetry): 0.554 ± 0.059 kPa | vapor or sublimation pressure ([1]; 497.9 K, Isothermal thermogravimetry): 0.5547 ± 0.061 kPa | vapor or sublimation pressure ([1]; 498.7 K, Isothermal thermogravimetry): 0.5818 ± 0.064 kPa | vapor or sublimation pressure ([1]; 499.3 K, Isothermal thermogravimetry): 0.61 ± 0.067 kPa | vapor or sublimation pressure ([1]; 499.3 K, Nonisothermal thermogravimetry): 0.669 ± 0.073 kPa | vapor or sublimation pressure ([1]; 499.9 K, Isothermal thermogravimetry): 0.6246 ± 0.072 kPa | vapor or sublimation pressure ([1]; 500.8 K, Isothermal thermogravimetry): 0.6364 ± 0.069 kPa | vapor or sublimation pressure ([1]; 501.4 K, Isothermal thermogravimetry): 0.677 ± 0.074 kPa | vapor or sublimation pressure ([1]; 502 K, Isothermal thermogravimetry): 0.6832 ± 0.079 kPa | vapor or sublimation pressure ([1]; 502.9 K, Isothermal thermogravimetry): 0.7129 ± 0.079 kPa | vapor or sublimation pressure ([1]; 503.2 K, Isothermal thermogravimetry): 0.733 ± 0.083 kPa | vapor or sublimation pressure ([1]; 503.2 K, Nonisothermal thermogravimetry): 0.729 ± 0.079 kPa | vapor or sublimation pressure ([1]; 503.4 K, Nonisothermal thermogravimetry): 0.838 ± 0.09 kPa | vapor or sublimation pressure ([1]; 503.8 K, Isothermal thermogravimetry): 0.765 ± 0.087 kPa | vapor or sublimation pressure ([1]; 504.7 K, Isothermal thermogravimetry): 0.7889 ± 0.09 kPa | vapor or sublimation pressure ([1]; 505.2 K, Isothermal thermogravimetry): 0.815 ± 0.087 kPa | vapor or sublimation pressure ([1]; 505.2 K, Nonisothermal thermogravimetry): 0.861 ± 0.091 kPa | vapor or sublimation pressure ([1]; 505.8 K, Isothermal thermogravimetry): 0.8468 ± 0.093 kPa | vapor or sublimation pressure ([1]; 506.7 K, Isothermal thermogravimetry): 0.8517 ± 0.093 kPa | vapor or sublimation pressure ([1]; 507.2 K, Isothermal thermogravimetry): 0.888 ± 0.094 kPa | vapor or sublimation pressure ([1]; 507.2 K, Nonisothermal thermogravimetry): 0.945 ± 0.1 kPa | vapor or sublimation pressure ([1]; 507.9 K, Isothermal thermogravimetry): 0.9142 ± 0.11 kPa | vapor or sublimation pressure ([1]; 508.7 K, Isothermal thermogravimetry): 0.933 ± 0.098 kPa | vapor or sublimation pressure ([1]; 509.3 K, Nonisothermal thermogravimetry): 1.037 ± 0.12 kPa | vapor or sublimation pressure ([1]; 511.3 K, Nonisothermal thermogravimetry): 1.207 ± 0.12 kPa | vapor or sublimation pressure ([1]; 513.4 K, Nonisothermal thermogravimetry): 1.178 ± 0.13 kPa | vapor or sublimation pressure ([1]; 515.4 K, Nonisothermal thermogravimetry): 1.41 ± 0.17 kPa | vapor or sublimation pressure ([1]; 517.2 K, Nonisothermal thermogravimetry): 1.544 ± 0.17 kPa | vapor or sublimation pressure ([1]; 519.2 K, Nonisothermal thermogravimetry): 1.696 ± 0.18 kPa | vapor or sublimation pressure ([1]; 521.3 K, Nonisothermal thermogravimetry): 1.757 ± 0.19 kPa | vapor or sublimation pressure ([1]; 523.2 K, Nonisothermal thermogravimetry): 2.012 ± 0.23 kPa | vapor or sublimation pressure ([1]; 525.3 K, Nonisothermal thermogravimetry): 2.197 ± 0.23 kPa | vapor or sublimation pressure ([1]; 527.3 K, Nonisothermal thermogravimetry): 2.32 ± 0.26 kPa | vapor or sublimation pressure ([1]; 529.2 K, Nonisothermal thermogravimetry): 2.607 ± 0.29 kPa | vapor or sublimation pressure ([1]; 531.2 K, Nonisothermal thermogravimetry): 2.823 ± 0.3 kPa | vapor or sublimation pressure ([1]; 533.3 K, Nonisothermal thermogravimetry): 3.064 ± 0.33 kPa | vapor or sublimation pressure ([1]; 535.4 K, Nonisothermal thermogravimetry): 3.295 ± 0.35 kPa | vapor or sublimation pressure ([1]; 537.2 K, Nonisothermal thermogravimetry): 3.552 ± 0.4 kPa | vapor or sublimation pressure ([1]; 539.3 K, Nonisothermal thermogravimetry): 4.01 ± 0.43 kPa | vapor or sublimation pressure ([1]; 541.3 K, Nonisothermal thermogravimetry): 4.144 ± 0.45 kPa | vapor or sublimation pressure ([1]; 543.3 K, Nonisothermal thermogravimetry): 4.653 ± 0.52 kPa | vapor or sublimation pressure ([1]; 545.4 K, Nonisothermal thermogravimetry): 5.059 ± 0.54 kPa | vapor or sublimation pressure ([1]; 547.4 K, Nonisothermal thermogravimetry): 5.373 ± 0.57 kPa | vapor or sublimation pressure ([1]; 549.2 K, Nonisothermal thermogravimetry): 5.759 ± 0.62 kPa | vapor or sublimation pressure ([1]; 551.2 K, Nonisothermal thermogravimetry): 6.208 ± 0.67 kPa | vapor or sublimation pressure ([1]; 553.2 K, Nonisothermal thermogravimetry): 6.719 ± 0.8 kPa | vapor or sublimation pressure ([1]; 557.3 K, Nonisothermal thermogravimetry): 7.824 ± 0.79 kPa | vapor or sublimation pressure ([1]; 559.4 K, Nonisothermal thermogravimetry): 8.304 ± 0.88 kPa | vapor or sublimation pressure ([1]; 561.2 K, Nonisothermal thermogravimetry): 8.944 ± 0.96 kPa | Normal melting temperature ([1]; Crystal, DTA): 172.5 ± 0.5 °C | Molar enthalpy of transition or fusion [2]: 6.45 ± 0.478 kcal/mol
